US5008285A, “(6,11-dihydro-11-oxodibenz[b,e]oxepin-yl)pentanoic acids and derivatives thereof” (Hoechst-Roussel Pharmaceuticals, Inc., priority 1989, dated 1991)
Where two headings read alike, the source gives them in different places.

What was measured:
[1] = ulcerogenic activity test (GI); conditions: in vivo, po
Text: (The ulcerogenic activity test is hereafter referred to as GI).

[2] = system: adjuvant-induced polyarthritis syndrome; assay: adjuvant-induced polyarthritis syndrome in rats (inhibition of paw volume); format: in vivo, male Charles River-Wistar Lewis rats; conditions: 504 h, rat, oral, from day before adjuvant, continued for 21 days
Procedure: The (6,11-dihydro-11-oxodibenz[b,e]oxepinyl)pentanoic acids and derivatives thereof of the present invention are useful as antiarthritic agents due to their ability to suppress arthritis-type inflammation in mammals. […] M. Perron and F. D. Wood, Arthritis and Rheumatism, 2, 440 (1959).
Groups of 10 male Charles River-Wistar Lewis rats weighing 150 to 175 g were individually housed and maintained on a regular rat chow diet. Water was given ad libitrim. The adjuvant was prepared by suspending 75 mg of Mycobacterium butyricum (Defco Laboratories, Detroit, Mich.) in 10 ml of white paraffin oil with continuous stirring for 2 hrs at room temperature prior to administration. Test compounds are prepared by suspending the drug in water, adding one drop of Tween 80 per 10 ml of suspension, and homogenizing. The adjuvant suspension (0.1 ml) was injected into the footpad of the left hind paw of the rat. Test compound suspensions were administered orally (10 ml/kg) the day before adjuvant suspension injection and the administration was continued for 21 days. One group of ten rats was used for the test drug, standard, adjuvant-injected control and non-injected control. Control animals received vehicle (10 ml/kg). Three doses of test drug and one dose of standard preparation were used. Injected and non-injected paw volumes were determined on the day the adjuvant suspension was given, and on subsequent days thereafter (usually days 5, 10, 18, and " the method of C. A. Winter, et al., Proc. Soc. Exp. Biol. Med., 111, 544 (1962).
The percent inhibition of paw volume (injected and non-injected hind paw) was calculated by the following formula: [formula]
ED50 -values, i.e., the dose at which the drug affects a 50% inhibition of paw volume, were estimated by the method of J. T. Litchfield and F. Wilcoxon, J. Pharm. Exp. Ther., 96, 99 (1948) and statistically evaluated by means of the student "t" test.

[3] = injected hind paw, read-out: ED50 (dose at which the drug affects a 50% inhibition of paw volume), injected paw
[4] = non-injected hind paw, read-out: ED50 (dose at which the drug affects a 50% inhibition of paw volume), non-injected paw

Compound	TD50 ([1]; read-out: GI ID50 (ulcerogenic activity))	ED50 [2, 3]	ED50 [2, 4]	TD50 [1]
CC(C(=O)O)c1ccc2c(c1)C(=O)c1ccccc1CO2 (stereo not drawn) [2-(6,11-Dihydro-11-oxodibenz[b,e]-oxepin-2-yl)propionic acid]	5.5 mg/kg			
CC(CCC(=O)O)c1ccc2c(c1)C(=O)c1ccccc1CO2 (stereo not drawn) [4-(6,11-Dihydro-11-oxodibenz[b,e]oxepin-2-yl)pentanoic acid]		6.4 mg/kg	3.4 mg/kg	> 100 mg/kg
CCCCC1C(=O)N(c2ccccc2)N(c2ccccc2)C1=O [Phenylbutazone]		12 mg/kg	6.8 mg/kg	
